Laboratory results as given in patent publication US10870858B2 (priority 2014, dated 2020).

Tested on: stably-integrated TK strains
Experiment: FUdR counterselection of TK versus tk cells on SC media
Assay type: cell-based, Saccharomyces
Settings: 50 μg/mL FUdR in synthetic complete (SC) media
Procedure: With a stably integrated copy of HSV-TK in each of several genomes, we were able to evaluate counterselection media conditions. […] As an initial test of our ability to recover newly generated tk wild-type cells, we transformed a strain of S. kudriavzevii that had regions of identical sequence on either side of its hoΔ::NatMX locus with TkMX PCR product and selected for cells resistant to the antifolate drugs (FIG. 4A). When counterselection with SC+FUdR media was conducted, only cells that had deleted the TkMX marker by homologous recombination survived and yielded colonies resistant to FUdR (FIG. 4B).

O=c1[nH]c(=O)n([C@H]2C[C@H](O)[C@@H](CO)O2)cc1F [FUdR, 5-fluorodeoxyuridine]
growth of stably-integrated TK strains: sufficient to inhibit growth
growth of tk wild-type cells: allow growth
